Three molecules from US6759238B1, “Multidrug resistance associated proteins and uses thereof” (priority 1999, dated 2004) can be followed below.

The nature of data set [1]: Cytotoxicity assay (growth inhibition, Coulter counter). The conditions noted are these: human. Here is the method: (§1) Selection for PMEA resistance was carried out by exposing CEM-SS cells in culture to increasing concentrations of PMEA, over several months.
(§2) The IC50 values were obtained after 2 days of culture. Each result is the mean of one representative experiment performed in duplicate. The cultures with the purine nucleosides adenosine, 2′-deoxyadenosine, and arabinosyladenine contained 5 μM deoxycoformycin to inhibit adenosine deaminase activity.
(§3) All assays were performed in 24-well tissue culture plates (Costar, Cambridge, Ma.). […] At the end of the incubation, the cell concentrations, sizes, and volumes were counted in a Coulter counter (Coulter Electronics, Hialeah. Fla.).

The subject of data set [2] is HIV-1IIIB in CEM-SS cells. In words: Antiviral activity (ED50, RT / p24 assay) in wild type cells. The data set is classed as cell-based. The conditions noted are these: Human immunodeficiency virus 1, WT (CEM-SS) cells. The text has this: (§4) As used herein, “pM” means picomolar, “nM” means nanmolar, “μM, means micromolar, “mM” means millimolar, “ul” or “μl” mean microliter, “ml” means milliliter, “l” means liter. […] “IC50” means the inhibitory concentration at which growth is arrested by 50 percent.
(§5) The two cell lines, CEM-SS and CEM-r1 were infected with HIV-IMB at a multiplicity of 0.01, and cultured for 6 days in the presence and absence of different concentrations of test drugs. The extent of virus production was monitored by in in-house p24 antigen capture assay (50).
The antiviral effects of the different drugs were monitored by RT assays according to previously described procedures (20, 21). […] After 5 days of incubation, the RT activity of the culture supernates was determined by previously described procedures (22). […] The filter papers were dried, transferred to a plastic bag containing scintillation cocktail, sealed, and counted in an LKB Betaplate reader. The drug concentrations yielding half-maximal RT activity (ED50) was calculated as a measure of the antiviral efficacy of the test compounds, using the nonlinear curve-fitting software Enzfitter (Elsevier Biosoft, Cambridge, UK).

Data set [3] in a line: Cytotoxicity assay (growth inhibition, Coulter counter). Conditions: human, CEM-SS cells (wild type, parental). Here is the method: (§6) […] Each result is the mean of one representative experiment performed in duplicate. The cultures with the purine nucleosides adenosine, 2′-deoxyadenosine, and arabinosyladenine contained 5 μM deoxycoformycin to inhibit adenosine deaminase activity.
as §3

For data set [4], the system named is HIV-1IIIB in CEM-r1 cells. The data set is described as follows: Antiviral activity (ED50, RT / p24 assay) in resistant cells. The data set is classed as cell-based. Conditions: Human immunodeficiency virus 1; CEM-r1 cells, HIV.
Text: as §4, §5
The antiviral effects of the different drugs were monitored by RT assays according to previously described procedures (20, 21). CEM-SS or CEM-r1 cells were infected with an inoculum of HIV-1IIIB standardized to contain 1 RT cpm/cell, and the virus-infected cells were seeded at a concentration of 0.2×10^6 cells/ml in medium containing varying concentrations of PMEA (or other test compounds). After 5 days of incubation, the RT activity of the culture supernates was determined by previously described procedures (22). […] The reaction was initiated by addition of 10 ul of virus-containing tissue culture supernatant. After 1 hr of incubation, 10 ul of the reaction mixture were spotted on a Whatman DE-81 tilter paper, air dried, and washed four times with 2×standard saline citrate (0.3 M NaCl, 0.03 M sodium citrate). The filter papers were dried, transferred to a plastic bag containing scintillation cocktail, sealed, and counted in an LKB Betaplate reader. The drug concentrations yielding half-maximal RT activity (ED50) was calculated as a measure of the antiviral efficacy of the test compounds, using the nonlinear curve-fitting software Enzfitter (Elsevier Biosoft, Cambridge, UK).

The subject of data set [5] is CEM-SS cells. In words: Efflux of PMEA from bispom-PMEA loaded cells. Type of data set: in vitro ADME, human. The conditions noted are these: CEM-SS, 3 min incubation, efflux at 15 minutes. Here is the method: (§7) To examine whether the resistant cells could be altered in their capacity to retain the phosphonate analog, the clearance of [^3H]PMEA and its metabolites from CEM-SS and CME-r1 cells was determined. […] Aliquots of cells and medium sampled at different intervals over a period of 2 hr were analyzed by HPLC, and the results are shown in FIG. 4. […] Some of this clearance was probably due to the anabolism of PMEA, because the PMEAp- and PMEApp-associated radioactivity continued to accumulate within the cells, but the majority of the radioactivity was excreted into the medium as PMEA. In contrast to the results with parental cells, loss of intracellular PMEA-associated radioactivity in the resistant CEM-r1 cells was extremely rapid and the majority of the radioactivity within the cells was excreted into the medium within 20-30 minutes of incubation (FIG. 4).
(§8) Both CEM-SS and CME-r1 cells were incubated for 3 minutes with increasing concentrations (range 0.07 mM to 8.80 mM) of the prodrug for the selecting agent, Bis(POM)PMEA. After incubation, the cells were pelleted and reconstituted in drug-free medium, and the amount of PMEA present in the medium and intracellularly was measured 15 minutes after resuspension. The amount of PMEA effluxing out into the medium at 15 minutes increased initially with increasing concentration (FIG. 7A).
(§9) Referring to Table 6 in greater detail, efflux kinetics were studied. Transport analysis of PMEA was conducted as previously described^48. […] The cells were then washed free of radioactivity and then incubated in drug-free medium in the presence of sodium azide and 2-deoxy-D-glucose. At various time periods, the amount of intracellular AZTMP was measured. As reported in Table 6, depletion of ATP led to an inhibition of AZTMP efflux (i.e. a significant accumulation of AZTMP in the CEM-r1 cells but not in the CEM-SS cells).
(§10) At the indicated times, extracts were prepared from the cells and the medium, and the prodrug and its various nucleoside/nucleotide metabolites were analyzed by HPLC as described previously (24).

Data set [6] concerns CEM-r1 cells. In words: Cytotoxicity assay (growth inhibition, Coulter counter). The procedure:
as §1, §2, §3

Data set [7] concerns CEM-r1 cells. In words: Efflux of PMEA from bispom-PMEA loaded cells. Type of data set: in vitro ADME, human. The conditions noted are these: CEM-r1, 3 min incubation, efflux at 15 minutes. Here is the method:
as §7, §8
CEM-r1 cells were incubated with 0.07-8.8 mM Bis(POM)PMEA for 3 minutes. The cells were pelleted and reconstituted in either drug-free medium or in medium containing 0.5 mM PMEA, and the amount of PMEA present in the medium and intracellularly was measured 15 minutes after resuspension.
as §9, §10

The subject of data set [8] is CEM-SS cells. The data set is described as follows: Cytotoxicity assay (growth inhibition, Coulter counter). Conditions: CEM-SS, 2 days of culture (Table 3). The procedure:
as §6, §3

For data set [9], the system named is CEM-SS cells. The data set is described as follows: Uptake and metabolism of [3H]bispom-PMEA. Here is the method: (§11) Therefore, the metabolism of [^3H]bispom-PMEA (15), a lipophilic prodrug of PMEA, was analyzed in the two cell lines in order to further examine the mechanism of resistance in the mutant cell line.
Data set [10] deals with CEM-r1 cells. In words: Uptake and metabolism of [3H]bispom-PMEA. Here is the method: as §11
The subject of another data set is CaCo-2 cells. The data set is described as follows: PMEA transport in transwell culture. Type of data set: in vitro ADME. The conditions noted are these: CaCo-2 transwell. An excerpt: A transwell culture which is permissive for cellular polarization may be used to measure the compartment to compartment flux of putative substrates. […] In addition, it is possible that expression of MPR4 depending if it is basal or apical (and this may vary by organ cultured) may determine if PMEA or PMEA-like drugs are absorbed.

Setting [11] is: CEM-SS, 1 μM [3H]bispom-PMEA, 15 minutes.
The mark [12] stands for this setting: CEM-r1, 1 μM [3H]bispom-PMEA, 15 minutes.

On to `Nc1ccn([C@@H]2CS[C@H](CO)O2)c(=O)n1` [3TC, lamivudine], for which the IC50 at 48 h in data set [1] came out at 5000 µM; in data set [3] it was 1000 µM. Also, the EC50 in data set [2] came to 0.21 µM; in data set [4] it was 1.1 µM.

With `CC(C)(C)C(=O)OCOP(=O)(COCCn1cnc2c(N)ncnc21)OCOC(=O)C(C)(C)C` [Bispom-PMEA, bis(pivaloyloxymethyl)-9-(2-phosphonylmethoxyethyl)adenine], the figures for the “Prodrug concentration above which the amount of PMEA effluxed did not increase significantly” value in the data set on CEM-SS cells [5] and in the data set on CEM-r1 cells [7] were “higher than 2.2 mM” and more than 4.4 mM, respectively. For the same molecule, the IC50 with CEM-r1 cells [6] (CEM-r1, 2 days of culture (Table 3)) was determined as 32 µM; in the data set on CEM-SS cells [8], 0.26 µM. The “Relative Resistance” value in the data set with CEM-r1 cells [6] (CEM-r1 vs CEM-SS (Table 3)) amounted to 123. Moreover, the “Cross-resistance of CEM-r1 cells (in words)” value in the data set on CEM-r1 cells [6] (relative sensitivity of wild-type and CEM-r1 cells) is given as “highly cross-resistant”. The “Metabolite Levels, Cells” value in the data set on CEM-SS cells [9] (setting [11]) was 0.03 µM; with CEM-r1 cells [10] (setting [12]), 0.04 µM. The “Metabolite Levels, Medium” value is given as 490 nM with CEM-SS cells [9] (setting [11]) and 429 nM in the data set with CEM-r1 cells [10] (setting [12]). The “Radioactivity present in the cells detected as the intact pro-drug” value with CEM-SS cells [9] (after incubation with [3H]bispom-PMEA, similar in parental and resistant cells) is on record as approximately 2%. In the data set on CEM-r1 cells [10] (1 μM [3H]bispom-PMEA, early time course (120 sec), CEM-SS vs CEM-r1), the “Initial uptake, difference between the two cell lines” value was “no significant difference”.

prostaglandin A: in the data set on CaCo-2 cells, the “Effect on apical to basal transport of PMEA” value is on record as “specifically inhibits” and the “Effect on basal to apical flux of PMEA” value is on record as “no effect”.
